Results published in article doi:10.1101/2021.12.02.470934v1 (biorxiv, 2021).

Biological target: FGFR1 kinase (FGFR1 kinase enzyme system, Promega V9321) (Homo sapiens, UniProt P11362)
Test: ADP-Glo luminescence kinase assay
Format: biochemical

Chain of FGFR1 kinase (FGFR1 kinase enzyme system, Promega V9321) (P11362 398-822 limits assumed): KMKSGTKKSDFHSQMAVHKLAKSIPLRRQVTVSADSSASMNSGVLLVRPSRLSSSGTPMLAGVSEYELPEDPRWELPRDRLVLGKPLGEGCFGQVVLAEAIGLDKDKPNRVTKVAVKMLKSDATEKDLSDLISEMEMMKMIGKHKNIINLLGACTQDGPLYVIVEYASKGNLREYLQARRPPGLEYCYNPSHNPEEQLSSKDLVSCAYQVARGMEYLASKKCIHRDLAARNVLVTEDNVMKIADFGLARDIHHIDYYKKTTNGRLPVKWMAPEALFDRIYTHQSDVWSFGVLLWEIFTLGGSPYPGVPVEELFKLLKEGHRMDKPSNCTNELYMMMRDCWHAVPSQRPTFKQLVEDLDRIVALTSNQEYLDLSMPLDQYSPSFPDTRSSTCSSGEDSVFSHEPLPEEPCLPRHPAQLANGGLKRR

IC50: 1050 nM
Structure (SMILES): CCN(CC)CCCC(C)Nc1c2ccc(Cl)cc2nc2ccc(OC)cc12 (stereo not shown) [Quinacrine]
